One series deals with T1, human 15-LO (Homo sapiens, UniProt P16050).
T1 construct: made in house; host or cells: Sf9 insect cells (baculovirus, Bac-to-Bac)
T1 sequence (P16050 1-662): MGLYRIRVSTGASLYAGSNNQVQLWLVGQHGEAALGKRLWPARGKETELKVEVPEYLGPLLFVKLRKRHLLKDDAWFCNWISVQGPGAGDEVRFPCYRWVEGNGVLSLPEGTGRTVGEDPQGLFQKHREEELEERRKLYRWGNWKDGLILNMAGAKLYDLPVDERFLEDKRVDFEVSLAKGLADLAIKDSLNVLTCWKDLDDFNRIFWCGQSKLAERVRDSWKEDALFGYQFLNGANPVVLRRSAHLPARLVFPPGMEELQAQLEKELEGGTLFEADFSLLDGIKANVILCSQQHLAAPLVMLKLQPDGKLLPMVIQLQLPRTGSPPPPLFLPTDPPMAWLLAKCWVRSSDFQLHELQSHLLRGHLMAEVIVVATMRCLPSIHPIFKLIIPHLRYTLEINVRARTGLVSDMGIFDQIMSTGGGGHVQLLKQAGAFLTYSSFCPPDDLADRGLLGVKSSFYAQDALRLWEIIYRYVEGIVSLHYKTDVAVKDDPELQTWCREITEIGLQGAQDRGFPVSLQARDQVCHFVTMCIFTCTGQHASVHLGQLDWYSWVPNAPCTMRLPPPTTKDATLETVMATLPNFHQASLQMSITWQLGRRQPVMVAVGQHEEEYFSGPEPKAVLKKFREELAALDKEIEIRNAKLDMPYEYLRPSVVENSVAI
As to the kind of experiment: Human Lysate 15-LO Assay (HUM15LO). The class given is biochemical. The following applies: recombinant human 15-LO, 174 μM linoleic acid, 15 minutes at 4° C., 13-HODE quantitated. As for the experimental part: In the HUM15LO assay, a test compound of the present invention was incubated with 15-LO enzyme in the presence of the linoleic acid substrate. For example, a known amount of a test compound of the present invention, 100 μL of human 15-LO, and 174 μM linoleic acid in PBS containing 0.2% sodium cholate were incubated for 15 minutes at 4° C. The reaction was stopped with 100 μL of mobile phase and 10 μL of triethyl phosphite. […] 13-HODE was quantitated by comparing peak areas of individual samples with those from a standard curve generated using authentic 13-HODE. The test reaction is compared to a control reaction, which is identical to the test reaction except no test compound of the present invention is present Percent inhibition is calculated as the amount of 13-HODE produced by the test reaction divided by the amount of 13-HODE produced by the control reaction, expressed as a percent.
Human 15-LO was generated in a recombinant 15-lipoxygenase bacculovirus expression system, using Gibco/BRL/Life Technologies' Bac-to-Bac expression reagents; T4 DNA ligase, Kanamycin, Gentamicin, tetracycline, penicillin, streptomycin, Bluo-gal, IPTG, DH10Bac competent cells, SOC, LB medium, Sf-900 II SFM media, Sf9 insect cells, Cell Fectin, and EcoRI, BamHI and KpnI restriction enzymes.

Series [1] deals with T2, rabbit reticulocyte 15-LO (Oryctolagus cuniculus, UniProt P12530).
T2 construct: 15-LO is obtained from phenylhydrazine-treated rabbits and purified according to the method of Rapoport; from tissue; host or cells: reticulocytes of phenylhydrazine-treated rabbits
T2 sequence (P12530 1-663): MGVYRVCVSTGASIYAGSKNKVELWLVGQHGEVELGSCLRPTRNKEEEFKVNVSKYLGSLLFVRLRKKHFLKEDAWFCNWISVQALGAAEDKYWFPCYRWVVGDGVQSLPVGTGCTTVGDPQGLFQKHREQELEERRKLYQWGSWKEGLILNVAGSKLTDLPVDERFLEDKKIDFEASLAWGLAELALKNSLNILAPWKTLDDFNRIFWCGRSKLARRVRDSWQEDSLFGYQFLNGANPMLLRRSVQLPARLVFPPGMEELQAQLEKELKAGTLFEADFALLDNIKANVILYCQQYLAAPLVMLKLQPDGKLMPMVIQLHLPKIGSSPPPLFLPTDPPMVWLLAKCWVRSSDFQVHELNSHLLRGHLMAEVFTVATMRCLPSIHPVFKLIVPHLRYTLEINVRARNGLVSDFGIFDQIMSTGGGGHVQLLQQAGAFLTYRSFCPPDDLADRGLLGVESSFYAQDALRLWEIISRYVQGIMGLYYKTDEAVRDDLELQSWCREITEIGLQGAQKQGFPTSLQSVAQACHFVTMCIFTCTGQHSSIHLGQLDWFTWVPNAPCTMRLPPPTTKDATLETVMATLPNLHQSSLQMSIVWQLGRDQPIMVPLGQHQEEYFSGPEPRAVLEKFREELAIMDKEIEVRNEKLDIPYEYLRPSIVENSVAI
As to the kind of experiment: Rabbit Reticulocyte 15-LO Assay (H15LO). It is filed as biochemical. The following applies: 2 U rabbit reticulocyte 15-LO, 174 μM linoleic acid, 15 minutes at 4° C., 13-HODE quantitated. As for the experimental part: In the H15LO assay, a test compound was incubated with 15-LO enzyme in the presence of the linoleic acid substrate. For example, 2 units (U) of rabbit reticulocyte 15-LO and 174 μM linoleic acid were incubated with a known amount of a test compound of the present invention for 15 minutes at 4° C. The total reaction volume was 100 μL in phosphate buffer saline (PBS) containing 0.2% sodium cholate. The reaction was stopped with 100 μL of mobile phase and […] of triethyl phosphite. […] 13-HODE was quantitated by comparing peak areas of individual samples with those from a standard curve generated using authentic 13-HODE.
15-LO is obtained from phenylhydrazine-treated rabbits and purified according to the method of Rapoport (Rapoport et al., European Journal of Biochemistry, 1979;96:545-561).

This note sets out measurements from US6906094B2, “1,2,4-tribsubstituted benzenes as inhibitors of 15-lipoxygenase” (Warner-Lambert Company, priority 2000, dated 2005).

pIC50: −log10 of the molar value.

The pIC50 is the negative decadic logarithm of the IC50, by convention in mol/L. A word on the melting point: it is the temperature, or range, at which the solid turns liquid. `COc1ccc(C(=O)Nc2ccc(F)c(F)c2)cc1NS(=O)(=O)NC(=O)OCCN1C(=O)c2ccccc2C1=O` [Example 56, Carbamic Acid, [[[5-[[(3,4-difluorophenyl)amino]carbonyl]-2-methoxyphenyl]amino]sulfonyl]-, 2-(1,3-dihydro-1,3-dioxo-2H-isoindol-2-yl)ethyl ester] came in with a melting point of 203 to 205 °C. For the same compound, the pIC50 at human 15-LO is 6.47. In turn, `COc1ccc(C(=O)Nc2ccc(F)c(F)c2)cc1NS(=O)(=O)NC(=O)Nc1cccc(Cl)c1` [Example 61, Benzamide, 3-[[[[[(3-chlorophenyl)amino]carbonyl]amino]sulfonyl]amino]-N-(3,4-difluorophenyl)-4-methoxy] displayed a melting point of 193 to 196 °C. In addition, on human 15-LO, the pIC50 is 7.41. The compound further had a negative-log IC50 (pIC50) in series [1] of 7.89. In turn, `COc1ccc(C(=O)Nc2ccc(F)c(F)c2)cc1NS(N)(=O)=O` [Example 55, Benzamide, 3-[(aminosulfonyl)amino]-N-(3,4-difluorophenyl)-4-methoxy] came in with a melting point of 167 to 170 °C. The pIC50 at human 15-LO is 7.54. Further, the pIC50 in series [1] was 7.72. With `COc1ccc(C(=O)Nc2ccc(F)c(F)c2)cc1NS(=O)(=O)NC(=O)OCCCO` [Example 46, Carbamic Acid, [[[5-[[(3,4-difluorophenyl)amino]carbonyl]-2-methoxyphenyl]amino]sulfonyl]-, 3-hydroxypropyl ester], the melting point lay in the range of 178 to 179 °C. Further, the pIC50 on human 15-LO is 6.08.

Consider `COc1ccc(-c2cc3cc(F)c(F)cc3[nH]2)cc1NS(N)(=O)=O` [Example 54, Sulfamide, [5-(5,6-difluoro-IH-indol-2-yl)-2-methoxyphenyl]], for which the melting point lay in the range of 177 to 180 °C. The pIC50 at human 15-LO is 7.92. This compound also showed a pIC50 in series [1] of 8.00.

Take `COc1ccc(C(=O)Nc2ccc(F)c(F)c2)cc1NS(=O)(=O)NC(=O)Nc1ccc(Cl)cc1` [Example 68, Benzamide, 3-[[[[[(4-chlorophenyl)amino]carbonyl]amino]sulfonyl]amino]-N-(3,4-difluorophenyl)-4-methoxy]: the melting point lay in the range of 195 to 198 °C. On human 15-LO, the pIC50 is 6.44.

`COc1ccc(C(=O)Nc2ccc(F)c(F)c2)cc1NS(=O)(=O)NC(=O)Nc1cccc([N+](=O)[O-])c1` (hydrate or solvate) [Example 60, Benzamide, N-(3,4-difluorophenyl)-4-methoxy-3-[[[[[(3-nitrophenyl) -amino]carbonyl]amino]sulfonyl]amino]] displayed a melting point of 206 to 208 °C. On to `COc1ccc(-c2cc3cc(F)c(F)cc3[nH]2)cc1NS(=O)(=O)NC(=O)OC(C)(C)C` (hydrate or solvate) [Example 53, Carbamic Acid, [[[5-(5,6-difluoro-indol-2-yl)-2-methoxyphenyl]amino]-sulfonyl]-, 1,1-dimethylethyl ester], for which the melting point was in the range of 158 to 160 °C. `COc1ccc(C(=O)Nc2ccc(F)c(F)c2)cc1NS(=O)(=O)NC(=O)OCCc1ccccc1` (hydrate or solvate) [Example 41] gave a melting point of 173 to 177 °C.

In the case of `COc1ccc(C(=O)Nc2ccc(F)c(F)c2)cc1NS(=O)(=O)NC(=O)Nc1ccc(C(C)(C)C)cc1` (hydrate or solvate) [Example 59, Benzamide, N-(3,4-difluorophenyl)-3-[[[[[[4-(1,1-dimethylethyl)phenyl]-amino]carbonyl]amino]sulfonyl]amino]-4-methoxy], the melting point fell in the range of 199 to 202 °C. Compound `COc1ccc(C(=O)Nc2ccc(F)c(F)c2)cc1NS(=O)(=O)NC(=O)Nc1cccc(C(F)(F)F)c1` [Example 64, Benzamide, N-(3,4-difluorophenyl)methoxy-3-[[[[[[3-(trifluoromethyl)phenyl]amino]carbonyl]amino]sulfonyl]amino]] showed a melting point of 198 to 200 °C. The pIC50 at human 15-LO is 7.62.

The compound `COc1ccc(-c2cc3cc(F)c(F)cc3[nH]2)cc1NS(=O)(=O)NC(=O)OCCOC(C)C` (hydrate or solvate) [Example 34, Carbamic Acid, [[[5-(5,6-difluoro-IH-indol-2-yl)-2-methoxyphenyl]amino]-sulfonyl]-2(1-methylethoxy)ethyl Ester] returned a melting point of 158 to 163 °C. Regarding `COC(=O)COC(=O)NS(=O)(=O)Nc1cc(-c2cc3cc(F)c(F)cc3[nH]2)ccc1OC` (hydrate or solvate) [Example 43, Acetic Acid, [[[[[[5-(5,6-difluoro-1H-indol-2-yl)-2-methoxyphenyl]amino]-sulfonyl]amino]carbonyl]oxy]-, Methyl ester], the melting point fell in the range of 190 to 192 °C. `COC(=O)COC(=O)NS(=O)(=O)Nc1cc(C(=O)Nc2ccc(F)c(F)c2)ccc1OC` [Example 44, Acetic Acid, [[[[[[5-[[(3,4-difluorophenyl)amino]carbonyl]-2-methoxyphenyl]-amino]sulfonyl]amino]carbonyl]oxy]-, Methyl ester] returned a melting point of 177 to 180 °C. Besides, at human 15-LO, the pIC50 is 6.63. With `COc1ccc(C(=O)Nc2ccc(F)c(F)c2)cc1NS(=O)(=O)NC(=O)OC(C)(C)C` [Example 58, Carbamic acid, [[[5-[[(3,4-difluorophenyl)amino]carbonyl]-2-methoxyphenyl]amino]sulfonyl]-, 1,1-dimethylethyl ester], the melting point lay in the range of 193 to 194 °C. Further, the pIC50 on human 15-LO was 6.12. In turn, `CCOCCOC(=O)NS(=O)(=O)Nc1cc(C(=O)Nc2ccc(F)c(F)c2)ccc1OC` [Example 48, Carbamic Acid, [[[5[[(3,4-difluorophenyl)amino]carbonyl]-2-methoxyphenyl]amino]sulfonyl]-, 2-ethoxyethyl ester] gave a melting point of 179 to 182 °C. Also, the pIC50 on human 15-LO is 6.51. `COc1ccc(-c2cc3cc(F)c(F)cc3[nH]2)cc1NS(=O)(=O)NC(=O)OCCc1ccccc1` (hydrate or solvate) [Example 40, Carbamic Acid, [[[5-(5,6-difluoro-IH-indol-2-yl)-2-methoxyphenyl]amino]-sulfonyl]-2-phenylethyl ester] gave a melting point of 180 to 182 °C. `COc1ccc(C(=O)Nc2ccc(F)c(F)c2)cc1NS(=O)(=O)NC(=O)Nc1cc(C(F)(F)F)cc(C(F)(F)F)c1` (hydrate or solvate) [Example 62, Benzamide, 3-[[[[[[3,5-bis(trifluoromethyl)phenyl]amino]-carbonyl]amino]-sulfonyl]amino]-N-(3,4-difluorophenyl)-4-methoxy] registered a melting point of 175 to 178 °C.
